The values below come from PMC3049593 (British Journal of Cancer, 2011).

Each structure is given as a SMILES string.

One series deals with heparanase. Details: method as in Dredge et al, 2010. As to conditions: ref Dredge et al, 2010; read-out: Ki (heparanase inhibitor); cited from earlier work.
Another series has as its system B16F0 lung metastases. As to the kind of experiment: B16F0 experimental lung metastasis model. The class given is in vivo, C57Bl6 mice. As to conditions: 20 mg kg^−1. The procedure: (§1) In the orthotopic Hep3b2.1-7 human liver cancer model, treatment of mice (n=10) began 14 days after inoculation of 2.5 × 10^6 cells. […] To initiate tumour xenografts, MDA-MB-231, PC3, Cal27 and HepG2 cells were injected s.c. into nude mice (n=8) at 4, 5, 2 and 2 × 10^7 cells ml^−1, respectively. […] In the B16F0 lung metastasis model, 2 × 10^5 cells were injected via the tail vein of C57Bl6 mice (n=8). […] Surface lung macrometastases were counted for each group (n=9) upon study termination. In the intrasplenic HT-29 xenograft model, 1 × 10^6 cells in 100 μl were injected into the spleen. […] Solid tumours were measured in two dimensions (length and width) and the tumour volume (cm^3) was calculated using the equation: V=length × width^2 × π/6. The anti-tumour activity was expressed as percent tumour growth inhibition (%TGI). Further details are available in Supplementary Methods. […]
(§2) antibody. […]
(§3) staining. For quantification, three independent visual fields (20x magnification) were chosen and positive stained spots or vessels with identifiable lumen were counted.
(§4) Angiogenesis inhibition and induction were calculated using the equations: […]
(§5) regimen both before and after tumour cell inoculation (days -6, -3, 0, +3, +6) or only after tumour cell inoculation (days 0, +3, +6). B16 cell (2x105) were inoculated via tail vein injections and mice were culled and assessed for lung metastases on day 12. […]

In another series the test system is HepG2 tumours. As to the kind of experiment: HepG2 liver xenograft model. The class given is in vivo, nude mice. On the procedure: as §1, §2, §3, §4, §5
The next series relates to B16. Put plainly: in vitro cytotoxicity (LC50). Type of series: cell-based. As to conditions: read-out: LC50 (concentration lethal to 50% of cells).
Series [1] relates to HT-29 tumours and metastases. As to the kind of experiment: intrasplenic HT-29 colon xenograft spontaneous metastasis model. The class given is in vivo, mice. The procedure:
as §1
once weekly or Sorafenib (60mg/kg, once daily, p.o.). The treatments were continued for three weeks. The lungs were excised from all mice at the time of culling for metastasis count determination. Surface lung macrometastases were counted for each group upon […]
In the HT-29 model, the lumbar region skin was sterilized with 5% tincture and 75% ethanol, respectively. One-cm-long incision was made to expose the spleen before 1×10^6 cells in 100 µL was injected into the spleen. […]
mg/kg) was administered to mice (n=12) each week (qw) over 8 weeks and surface liver and colon metastatic nodules were counted for each group (n=12) upon study termination. Spleen and liver weights were also measured as indirect assessment of […]
In relevant models, solid tumours were measured in two dimensions (length and width) and the tumour volume (mm3) calculated using the equation V = length × width2 × π/6.The anti-tumour activity was assessed by the comparison of the mean tumour volume of the treated groups to the mean tumour volume of the control group and expressed as the percent Tumour Growth Inhibition (TGI) using the equation: […]

In a further series the test system is MDA-MB-231 tumours. As to the kind of experiment: MDA-MB-231 breast xenograft model. Type of series: in vivo, nude mice. The procedure: as §1, §2, §3, §4, §5
[2] abbreviates: qw, 20 mg kg^−1, after 8th week of administration.

One may read the Ki as a measure of affinity in units of concentration, obtained from inhibition or displacement. The TGI is the reduction of tumour growth relative to the control group. `CC(C)CCC[C@@H](C)[C@H]1CCC2C3CCC4C[C@@H](O[C@@H]5O[C@H](COS(=O)(=O)[O-])[C@@H](O[C@H]6O[C@H](COS(=O)(=O)[O-])[C@@H](O[C@H]7O[C@H](COS(=O)(=O)[O-])[C@@H](O[C@H]8O[C@H](COS(=O)(=O)[O-])[C@@H](OS(=O)(=O)[O-])[C@H](OS(=O)(=O)[O-])[C@H]8OS(=O)(=O)[O-])[C@H](OS(=O)(=O)[O-])[C@H]7OS(=O)(=O)[O-])[C@H](OS(=O)(=O)[O-])[C@H]6OS(=O)(=O)[O-])[C@H](OS(=O)(=O)[O-])[C@H]5OS(=O)(=O)[O-])CC[C@]4(C)C3CC[C@@]21C.[Na+].[Na+].[Na+].[Na+].[Na+].[Na+].[Na+].[Na+].[Na+].[Na+].[Na+].[Na+].[Na+]` (some centres unmarked) [PG545]: the Ki on heparanase is 6 nM. In addition, the “TGI (lung metastases)” value in the series on B16F0 lung metastases (days 0, +3, +6) came to 62%; in the series with B16F0 lung metastases (days −6, −3, 0, +3, +6) it was 99%. The inhibition of tumour growth (TGI) in the series on HepG2 tumours (20 mg kg^−1 once-weekly s.c.) came to 55%; with HepG2 tumours (20 mg kg^−1 twice-weekly s.c.), 45%; in the series on MDA-MB-231 tumours (30 mg kg^−1 once-weekly s.c.), 69%; in the series on MDA-MB-231 tumours (30 mg kg^−1 twice-weekly s.c.), 59%. The CC50 in the series on B16 is more than 200000 nM. In addition, the primary tumour growth entry in series [1] (20 mg kg^−1 qw over 8 weeks) is on record as “significantly reduced primary tumour growth”. The “TGI (colon metastases)” value in series [1] (setting [2]) is listed as 93%. Moreover, in series [1] (setting [2]), the “TGI (liver metastases)” value was found to be 100%.
